Test results: patent US20260184687A1, “DIHYDROINDENE DERIVATIVES AS MALT1 INHIBITORS” (C4X Discovery Limited, priority 2022, published 2026)

Assays:
[1] = test system: IL-2 release from stimulated Jurkat cells; assay: Human IL-2 Release Phenotypic Assay (Assay 3); format: cell-based; conditions: Jurkat cells (clone E6-1), 200 ng/mL PMA + 300 ng/mL ionomycin, IL-2 by ELISA
Method: This assay measured the inhibition by MALT1 inhibitors of the IL-2 release from stimulated Jurkat cells, a human immortalized T lymphocyte cell line. IL-2 production from Jurkat cells is regulated by activation of NFκB signalling, which is in turn regulated by MALT1 protease activity.
Jurkat cells (clone E6-1, ATCC) were cultured in RPMI1640 supplemented with 10% (v/v) FBS and 1% (v/v) penicillin/streptomycin (100× liquid stocks). Cells were seeded in 96-well white tissue culture-treated plates (Perkin Elmer) at 50 000 cells/well and incubated overnight at 37° C., 5% CO2. Test compounds in DMSO at half-log dilutions were added to the cells and incubated for 30 mins. Final DMSO concentration was 0.5%. Cells were then stimulated with 200 ng/mL PMA+300 ng/mL ionomycin and incubated for 48 hours. […] IC50 values were calculated using GraphPad Prism using 4-parameter non-linear regression curve fit.

FL hMALT1 enzyme = target: T1, FL hMALT1 enzyme (Homo sapiens, UniProt Q9UDY8); assay: biochemical;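 note: Cell-free protease assay: enzyme preincubated with compound 30 min at room temperature, then cleavage of fluorogenic Ac-LVSR-AMC substrate (100 µM) tracked by fluorescence (ex 360/em 460 nm)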
T1 sequence (Q9UDY8 1-824): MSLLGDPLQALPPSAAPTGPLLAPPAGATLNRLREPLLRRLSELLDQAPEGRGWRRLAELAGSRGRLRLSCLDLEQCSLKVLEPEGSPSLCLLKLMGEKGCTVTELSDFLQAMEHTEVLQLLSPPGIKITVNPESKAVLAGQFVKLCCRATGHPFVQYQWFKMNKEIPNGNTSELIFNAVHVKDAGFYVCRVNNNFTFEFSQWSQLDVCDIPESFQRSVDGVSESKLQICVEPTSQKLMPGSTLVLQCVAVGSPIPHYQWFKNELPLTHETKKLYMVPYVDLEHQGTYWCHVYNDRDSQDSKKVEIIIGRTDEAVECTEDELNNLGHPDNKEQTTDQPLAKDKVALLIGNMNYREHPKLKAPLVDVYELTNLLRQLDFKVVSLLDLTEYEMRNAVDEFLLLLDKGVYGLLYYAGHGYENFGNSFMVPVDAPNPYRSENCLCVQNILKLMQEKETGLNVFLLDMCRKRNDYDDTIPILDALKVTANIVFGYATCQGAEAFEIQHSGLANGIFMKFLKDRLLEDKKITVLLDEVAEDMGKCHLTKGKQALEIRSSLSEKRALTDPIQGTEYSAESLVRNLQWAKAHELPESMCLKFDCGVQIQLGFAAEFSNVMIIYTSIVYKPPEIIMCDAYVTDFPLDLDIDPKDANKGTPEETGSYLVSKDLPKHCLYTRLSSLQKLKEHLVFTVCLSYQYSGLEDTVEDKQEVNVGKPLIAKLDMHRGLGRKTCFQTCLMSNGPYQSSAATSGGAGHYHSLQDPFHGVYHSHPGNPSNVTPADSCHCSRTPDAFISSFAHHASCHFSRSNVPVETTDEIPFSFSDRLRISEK

SMILES | IC50 ([1]; Homo sapiens, Jurkat, 48 h) | IC50 (FL hMALT1 enzyme) | also measured
CN(C(=O)C1CCS(=O)(=O)CC1)[C@@H](c1ccc(NC2Cc3ccccc3C2)cc1)C(F)(F)F [Example 3, (S)—N-(1-(4-((2,3-Dihydro-1H-inden-2-yl)amino)phenyl)-2,2,2-trifluoroethyl)-N-methyltetrahydro-2H-thiopyran-4-carboxamide 1,1-dioxide] | 1940 nM | – | –
CN(C(=O)[C@@H]1CCC(=O)N1)[C@@H](c1ccc(N[C@H]2Cc3ccccc3C2(C)C)cn1)C(F)(F)F [Example 170, (S)—N—((S)-1-(5-(((S)-1,1-Dimethyl-2,3-dihydro-1H-inden-2-yl)amino)pyridin-2-yl)-2,2,2-trifluoroethyl)-N-methyl-5-oxopyrrolidine-2-carboxamide] | 210 nM | – | –
CN(C(=O)c1cc[nH]c(=O)c1)C(c1ccc(NC2Cc3ccccc3C2(C)C)nc1)C(F)(F)F (single isomer, unassigned) [Example 101, N-(1-(6-((1,1-Dimethyl-2,3-dihydro-1H-inden-2-yl)amino)pyridin-3-yl)-2,2,2-trifluoroethyl)-N-methyl-2-oxo-1,2-dihydropyridine-4-carboxamide] | – | – | IC50 ([1]; 48 hours): 2640 nM
CC(=O)N1CC[C@H](C(=O)N(C)[C@@H](c2ccc(N[C@H]3Cc4ccccc4C3(C)C)cn2)C(F)(F)F)C1 [Example 169, (S)-1-Acetyl-N—((S)-1-(5-(((S)-1,1-dimethyl-2,3-dihydro-1H-inden-2-yl)amino)pyridin-2-yl)-2,2,2-trifluoroethyl)-N-methylpyrrolidine-3-carboxamide] | 720 nM | – | –
CN(C(=O)[C@H]1CNC(=O)C1)[C@@H](c1ccc(N[C@H]2Cc3ccccc3C2(C)C)cn1)C(F)(F)F [Example 166, (R)—N—((S)-1-(5-(((S)-1,1-Dimethyl-2,3-dihydro-1H-inden-2-yl)amino)pyridin-2-yl)-2,2,2-trifluoroethyl)-N-methyl-5-oxopyrrolidine-3-carboxamide] | 510 nM | – | –
CC(=O)N[C@H]1C[C@@H](C(=O)N(C)[C@@H](c2ccc(N[C@H]3Cc4ccccc4C3(C)C)cn2)C(F)(F)F)C1 [Example 182, (1,3-cis)-3-Acetamido-N—((S)-1-(5-(((S)-1,1-dimethyl-2,3-dihydro-1H-inden-2-yl)amino)pyridin-2-yl)-2,2,2-trifluoroethyl)-N-methylcyclobutane-1-carboxamide] | 400 nM | – | –
CN(C(=O)CC1CCS(=O)(=O)CC1)[C@@H](c1ccc(N[C@H]2Cc3ccccc3C2(C)C)cn1)C(F)(F)F [Example 196, N—((S)-1-(5-(((S)-1,1-Dimethyl-2,3-dihydro-1H-inden-2-yl)amino)pyridin-2-yl)-2,2,2-trifluoroethyl)-2-(1,1-dioxidotetrahydro-2H-thiopyran-4-yl)-N-methylacetamide] | 860 nM | – | –
CN(C(=O)C1CCN(S(C)(=O)=O)CC1)[C@@H](c1ccc(N[C@H]2Cc3ccccc3C2(C)C)cn1)C(F)(F)F [Example 223, N—((S)-1-(5-(((S)-1,1-Dimethyl-2,3-dihydro-1H-inden-2-yl)amino)pyridin-2-yl)-2,2,2-trifluoroethyl)-N-methyl-1-(methylsulfonyl)piperidine-4-carboxamide] | 150 nM | – | –
Cc1cc2c(cc1C)CC(Nc1ccc([C@H](N(C)C(=O)C3CCS(=O)(=O)CC3)C(F)(F)F)nc1)C2 [Example 260, (S)—N-(1-(5-((5,6-Dimethyl-2,3-dihydro-1H-inden-2-yl)amino)pyridin-2-yl)-2,2,2-trifluoroethyl)-N-methyltetrahydro-2H-thiopyran-4-carboxamide 1,1-dioxide] | 860 nM | – | –
CN(C(=O)N1CCC(C)(O)CC1)[C@@H](c1ccc(NC2Cc3ccccc3C2(C)C)cc1)C(F)(F)F (single isomer, unassigned) [Example 16] | – | – | IC50 ([1]; 48 hours): 250 nM
CN(C(=O)[C@H]1C[C@H](NS(C)(=O)=O)C1)[C@@H](c1ccc(N[C@H]2Cc3ccccc3C2(C)C)cn1)C(F)(F)F [Example 222, (1,3-trans)-N—((S)-1-(5-(((S)-1,1-Dimethyl-2,3-dihydro-1H-inden-2-yl)amino)pyridin-2-yl)-2,2,2-trifluoroethyl)-N-methyl-3-(methylsulfonamido)cyclobutane-1-carboxamide] | 260 nM | – | –
CC(=O)N1CC[C@@H](C(=O)N(C)[C@@H](c2ccc(N[C@H]3Cc4ccccc4C3(C)C)cn2)C(F)(F)F)C1 [Example 192, (R)-1-Acetyl-N—((S)-1-(5-(((S)-1,1-dimethyl-2,3-dihydro-1H-inden-2-yl)amino)pyridin-2-yl)-2,2,2-trifluoroethyl)-N-methylpyrrolidine-3-carboxamide] | 440 nM | – | –
CN(C(=O)[C@@H]1C[C@@H](O)CN1S(C)(=O)=O)[C@@H](c1ccc(N[C@H]2Cc3ccccc3C2(C)C)cn1)C(F)(F)F [Example 244, (2S,4R)—N—((S)-1-(5-(((S)-1,1-Dimethyl-2,3-dihydro-1H-inden-2-yl)amino)pyridin-2-yl)-2,2,2-trifluoroethyl)-4-hydroxy-N-methyl-1-(methylsulfonyl)pyrrolidine-2-carboxamide] | 270 nM | – | –
CN(C(=O)[C@H]1C[C@@H](NS(C)(=O)=O)C1)[C@@H](c1ccc(N[C@H]2Cc3ccccc3C2(C)C)cn1)C(F)(F)F [Example 241, (1,3-cis)-N—((S)-1-(5-(((S)-1,1-Dimethyl-2,3-dihydro-1H-inden-2-yl)amino)pyridin-2-yl)-2,2,2-trifluoroethyl)-N-methyl-3-(methylsulfonamido)cyclobutane-1-carboxamide] | 400 nM | – | –
CN(C(=O)[C@@H]1CNC(=O)C1)[C@@H](c1ccc(N[C@H]2Cc3ccccc3C2(C)C)cn1)C(F)(F)F [Example 160, (S)—N—((S)-1-(5-(((S)-1,1-Dimethyl-2,3-dihydro-1H-inden-2-yl)amino)pyridin-2-yl)-2,2,2-trifluoroethyl)-N-methyl-5-oxopyrrolidine-3-carboxamide] | 180 nM | – | –
CNC(=O)[C@H]1C[C@H](C(=O)N(C)[C@@H](c2ccc(N[C@H]3Cc4ccccc4C3(C)C)cn2)C(F)(F)F)C1 [Example 247, (1,3-trans)-N—((S)-1-(5-(((S)-1,1-Dimethyl-2,3-dihydro-1H-inden-2-yl)amino)pyridin-2-yl)-2,2,2-trifluoroethyl)-N^1,N^3-dimethylcyclobutane-1,3-dicarboxamide] | 170 nM | – | –
CN(C(=O)C1CCS(=O)(=O)CC1)[C@@H](c1ccc(NC2Cc3cccc(F)c3C2)cn1)C(F)(F)F (single isomer, unassigned) [Example 275] | – | 520 nM | –
CN(C(=O)C1CCS(=O)(=O)C1)[C@@H](c1ccc(NC2Cc3ccc(Cl)c(Cl)c3C2)cn1)C(F)(F)F (single isomer, unassigned) [Example 359] | – | 480 nM | –
CN(C(=O)C1CN(C(=O)C2CCO2)C1)[C@@H](c1ccc(NC2Cc3ccc(Cl)c(F)c3C2)cn1)C(F)(F)F (single isomer, unassigned) [Example 385] | – | 130 nM | –
CN(C(=O)C1CN2CCC1CC2)[C@@H](c1ccc(NC2Cc3ccccc3C2(C)C)cn1)C(F)(F)F (single isomer, unassigned) [Example 139] | – | 370 nM | –
CN(C(=O)CN1CCCS1(=O)=O)[C@@H](c1ccc(NC2Cc3ccc(Cl)c(F)c3C2)cn1)C(F)(F)F (single isomer, unassigned) [Example 362] | – | 280 nM | –
CNC(=O)N1CC(C(=O)N(C)[C@@H](c2ccc(NC3Cc4ccc(Cl)c(Cl)c4C3)cn2)C(F)(F)F)C1 (single isomer, unassigned) [Example 334] | – | 300 nM | –
CN(C(=O)C1CC2(CCN2CCO)C1)[C@@H](c1ccc(NC2Cc3ccccc3C2(C)C)cn1)C(F)(F)F (single isomer, unassigned) [Example 248] | – | 140 nM | –
CN(C(=O)CNS(C)(=O)=O)[C@@H](c1ccc(NC2Cc3ccc(Cl)c(Cl)c3C2)cn1)C(F)(F)F (single isomer, unassigned) [Example 381] | – | 77 nM | –
CN(C(=O)C1C2CS(=O)(=O)CC21)[C@@H](c1ccc(NC2Cc3ccccc3C2(C)C)cn1)C(F)(F)F (single isomer, unassigned) [Example 217] | – | 170 nM | –
CN(C(=O)C1CN2CCC1CC2)[C@@H](c1ccc(NC2Cc3ccccc3C2(C)C)nc1)C(F)(F)F (single isomer, unassigned) [Example 120] | – | 770 nM | –
